Measured values published in US12157755B2, “CD73 inhibitor, preparation method therefor and application thereof” (Abbisko Therapeutics Co., Ltd., priority 2019, dated 2024).

Key:
CD73 = target: T1, CD73 (Homo sapiens, UniProt P21589); test: In vitro enzymatic activity against CD73 (malachite green test using soluble CD73); type: biochemical; conditions: soluble CD73 36 ng/mL, 50 μM AMP, 30 minutes at 25° C.
T1 construct: purchased R&D systems 5795-EN-010
T1 sequence (P21589 27-547 limits assumed): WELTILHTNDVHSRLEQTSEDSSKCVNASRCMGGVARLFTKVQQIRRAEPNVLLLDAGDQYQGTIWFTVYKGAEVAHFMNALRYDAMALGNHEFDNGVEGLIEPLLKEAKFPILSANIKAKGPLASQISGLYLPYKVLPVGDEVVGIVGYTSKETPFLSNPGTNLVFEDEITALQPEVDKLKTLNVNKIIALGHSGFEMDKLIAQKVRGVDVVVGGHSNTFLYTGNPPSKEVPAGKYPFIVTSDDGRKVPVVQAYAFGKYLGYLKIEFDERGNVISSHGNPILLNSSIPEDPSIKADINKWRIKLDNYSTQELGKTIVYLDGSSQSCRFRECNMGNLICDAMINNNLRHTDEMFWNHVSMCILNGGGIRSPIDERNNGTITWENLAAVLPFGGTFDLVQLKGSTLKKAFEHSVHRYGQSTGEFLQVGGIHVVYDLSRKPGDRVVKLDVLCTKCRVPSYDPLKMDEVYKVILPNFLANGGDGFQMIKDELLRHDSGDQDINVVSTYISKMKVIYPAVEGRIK
Experimental: The malachite green test using soluble CD73, which is synthesized in vitro was used in the present invention to determine the characteristics of inhibitory activity of the compounds against CD73. The specific experimental procedures were as following:
1. The enzyme reaction in this experiment was carried out in 384-well plates, and CD73 (R&D systems #5795-EN-010) at a concentration of 36 ng/mL, the compounds at different concentrations and 50 μM AMP were incubated for 30 minutes at 25° C. in a 40 uL reaction system (consisting of 25 mM Tris pH 7.5, 5 mM MgCl2, and 0.005% Tween-20);
2. Then, 10 μL of malachite green solution (Sigma) was added to each well to terminate the reaction;
3. The concentration of resulting inorganic phosphate was determined according to the instructions of the reagent manufacturer;
4. The enzymatic activity of CD73 was calculated based on the concentration of the product, and then IC50 values were determined by non-linear regression analysis of the inhibition percentage of the compounds of the present invention at different concentrations.

[1] = target: T2, CD73 enzymatic activity expressed on the cell surface of MDA-MB-231 cells (Homo sapiens, UniProt P21589); test: Inhibition of CD73 enzymatic activity on the cell surface (Cell Titer Glo (CTG) experiment), MDA-MB-231 cells; type: cell-based; conditions: MDA-MB-231 cells endogenously expressing CD73, AMP, 37° C. for 2 hours, CTG readout; read-out: Cellular activity IC50
T2 construct: Human breast cancer cells MDA-MB-231 that endogenously express CD73 were used; host or cells: MDA-MB-231
T2 sequence (P21589 27-549): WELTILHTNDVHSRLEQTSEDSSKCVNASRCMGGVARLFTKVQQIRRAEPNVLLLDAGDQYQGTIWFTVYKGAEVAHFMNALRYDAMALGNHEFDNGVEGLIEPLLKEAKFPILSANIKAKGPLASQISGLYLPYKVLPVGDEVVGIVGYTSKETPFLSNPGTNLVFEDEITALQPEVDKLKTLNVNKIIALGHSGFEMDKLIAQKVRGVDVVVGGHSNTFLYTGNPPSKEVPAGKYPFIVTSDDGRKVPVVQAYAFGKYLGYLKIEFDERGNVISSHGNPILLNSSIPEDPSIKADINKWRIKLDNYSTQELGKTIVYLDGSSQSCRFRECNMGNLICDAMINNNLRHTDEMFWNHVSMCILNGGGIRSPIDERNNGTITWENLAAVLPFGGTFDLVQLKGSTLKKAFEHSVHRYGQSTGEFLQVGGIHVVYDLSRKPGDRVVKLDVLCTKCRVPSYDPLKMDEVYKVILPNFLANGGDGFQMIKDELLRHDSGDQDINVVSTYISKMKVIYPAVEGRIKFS
Experimental: Human breast cancer cells MDA-MB-231 that endogenously express CD73 were used in the present invention to evaluate the inhibition of the compound against the CD73 enzymatic activity expressed on the cell surface. The cells used were from the Cell Bank of the Chinese Academy of Sciences. The specific experimental procedures were as follows:
1. Before the test, MDA-MB231 cells were seeded to a 96-well plate at 20000 cells/well;
2. In RPMI1640, 10% fetal bovine serum (Gibco, 10099-141), placed in a 5% CO2 incubator at 37° C. overnight (the cells were washed three times by using a serum-free RPMI medium right before the test):
3. 50 μl of serum-free media containing the compounds at different concentrations were added to the cells and incubated for 15 minutes;
4. 25 μL of 1.2 mM AMP was added for incubation at 37° C. for 2 hours, 25 μL of supernatant was then collected from the cells and mix with 25 μL of 100 μM ATP, and then the concentration of AMP in the samples was determined by CTG (Promega, #G7573);
5. Then, a reduction ratio of the substrate AMP level in the cell culture supernatant collected after the reaction was quantitatively determined to evaluate the inhibitory effects of the examples of the present invention and the positive compounds against the CD73 enzymatic activity on the cell surface;
6. Finally, the concentration of the compound leading to half maximal inhibition of enzymatic activity (IC50) was determined using a four-parameter non-linear logistic model curve fit in Graphpad Prism.

Compound	IC50 (CD73) [nM]	IC50 [1] [nM]
O=P(O)(O)CP(=O)(O)OC[C@H]1O[C@@H](n2ncc3c(N[C@H]4CCc5ccccc54)cc(Cl)nc32)[C@H](O)[C@@H]1O [Example 12, (((((2R,3S,4R,5R)-5-(6-chloro-4-(((S)-2,3-dihydro-1H-inden-1-yl)amino)-1H-pyrazolo[3,4-b]pyridin-1-yl)-3,4-dihydroxytetrahydrofuran-2-yl)methoxy)(hydroxy)phosphoryl)methyl)phosphonic acid]	0.26	0.26
O=P(O)(O)CP(=O)(O)OC[C@H]1O[C@@H](n2ncc3c(N[C@@H]4CCc5ccccc54)cc(Cl)nc32)[C@H](O)[C@@H]1O [Example 13, (((((2R,3S,4R,5R)-5-(6-chloro-4-(((R)-2,3-dihydro-1H-inden-1-yl)amino)-1H-pyrazolo[3,4-b]pyridin-1-yl)-3,4-dihydroxytetrahydrofuran-2-yl)methoxy)(hydroxy)phosphoryl)methyl)phosphonic acid]	0.42	0.13
CN(c1cc(Cl)nc2c1cnn2[C@@H]1O[C@H](COP(=O)(O)CP(=O)(O)O)[C@@H](O)[C@H]1O)[C@H]1CCc2ccccc21 [Example 14, (((((2R,3S,4R,5R)-5-(6-chloro-4-(((S)-2,3-dihydro-1H-inden-1-yl)(methyl)amino)-1H-pyrazolo[3,4-b]pyridin-1-yl)-3,4-dihydroxytetrahydrofuran-2-yl)methoxy)(hydroxy)phosphoryl)methyl)phosphonic acid]	0.16	0.45
CN(c1cc(Cl)nc2c1cnn2[C@@H]1O[C@H](COP(=O)(O)CP(=O)(O)O)[C@@H](O)[C@H]1O)[C@@H]1CCc2ccccc21 [Example 15, (((((2R,3S,4R,5R)-5-(6-chloro-4-(((R)-2,3-dihydro-1H-inden-1-yl)(methyl)amino)-1H-pyrazolo[3,4-b]pyridin-1-yl)-3,4-dihydroxytetrahydrofuran-2-yl)methoxy)(hydroxy)phosphoryl)methyl)phosphonic acid]	0.97	0.121
O=P(O)(O)CP(=O)(O)OC[C@H]1O[C@@H](n2ncc3c(N[C@@H]4CCc5cc(F)ccc54)cc(Cl)nc32)[C@H](O)[C@@H]1O [Example 16, (((((2R,3S,4R,5R)-5-(6-chloro-4-(((R)-5-fluoro-2,3-dihydro-1H-inden-1-yl)amino)-1H-pyrazolo[3,4-b]pyridin-1-yl)-3,4-dihydroxytetrahydrofuran-2-yl)methoxy)(hydroxy)phosphoryl)methyl)phosphonic acid]	0.34	0.176
O=P(O)(O)CP(=O)(O)OC[C@H]1O[C@@H](n2ncc3c(N[C@@H]4CCc5ccc(F)cc54)cc(Cl)nc32)[C@H](O)[C@@H]1O [Example 17, (((((2R,3S,4R,5R)-5-(6-chloro-4-(((R)-6-fluoro-2,3-dihydro-1H-inden-1-yl)amino)-1H-pyrazolo[3,4-b]pyridin-1-yl)-3,4-dihydroxytetrahydrofuran-2-yl)methoxy)(hydroxy)phosphoryl)methyl)phosphonic acid]	0.32	0.14
O=P(O)(O)CP(=O)(O)OC[C@H]1O[C@@H](n2ncc3c(N[C@@H]4CCc5cc(Cl)ccc54)cc(Cl)nc32)[C@H](O)[C@@H]1O [Example 18, (((((2R,3S,4R,5R)-5-(6-chloro-4-(((R)-5-chloro-2,3-dihydro-1H-inden-1-yl)amino)-1H-pyrazolo[3,4-b]pyridin-1-yl)-3,4-dihydroxytetrahydrofuran-2-yl)methoxy)(hydroxy)phosphoryl)methyl)phosphonic acid]	1.67	0.24
O=P(O)(O)CP(=O)(O)OC[C@H]1O[C@@H](n2ncc3c(N[C@@H]4CCc5cc(C(F)(F)F)ccc54)cc(Cl)nc32)[C@H](O)[C@@H]1O [Example 19, (((((2R,3S,4R,5R)-5-(6-chloro-4-(((R)-5-(trifluoromethyl)-2,3-dihydro-1H-inden-1-yl)amino)-1H-pyrazolo[3,4-b]pyridin-1-yl)-3,4-dihydroxytetrahydrofuran-2-yl)methoxy)(hydroxy)phosphoryl)methyl)phosphonic acid]	11.8	0.54
O=P(O)(O)CP(=O)(O)OC[C@H]1O[C@@H](n2ncc3c(N[C@@H]4CCc5ccc(C(F)(F)F)cc54)cc(Cl)nc32)[C@H](O)[C@@H]1O [Example 20, (((((2R,3S,4R,5R)-5-(6-chloro-4-(((R)-6-(trifluoromethyl)-2,3-dihydro-1H-inden-1-yl)amino)-1H-pyrazolo[3,4-b]pyridin-1-yl)-3,4-dihydroxytetrahydrofuran-2-yl)methoxy)(hydroxy)phosphoryl)methyl)phosphonic acid]	0.71	0.27
O=P(O)(O)CP(=O)(O)OC[C@H]1O[C@@H](n2ncc3c(N[C@@H]4CCc5cc(F)cc(F)c54)cc(Cl)nc32)[C@H](O)[C@@H]1O [Example 21, (((((2R,3S,4R,5R)-5-(6-chloro-4-(((R)-5,7-difluoro-2,3-dihydro-1H-inden-1-yl)amino)-1H-pyrazolo[3,4-b]pyridin-1-yl)-3,4-dihydroxytetrahydrofuran-2-yl)methoxy)(hydroxy)phosphoryl)methyl)phosphonic acid]	0.21	0.21
O=P(O)(O)CP(=O)(O)OC[C@H]1O[C@@H](n2ncc3c(N[C@@H]4CCc5cc(F)c(F)cc54)cc(Cl)nc32)[C@H](O)[C@@H]1O [Example 22, (((((2R,3S,4R,5R)-5-(6-chloro-4-(((R)-5,6-difluoro-2,3-dihydro-1H-inden-1-yl)amino)-1H-pyrazolo[3,4-b]pyridin-1-yl)-3,4-dihydroxytetrahydrofuran-2-yl)methoxy)(hydroxy)phosphoryl)methyl)phosphonic acid]	0.26	0.151
Cc1cc(N[C@@H]2CCc3cc(F)cc(F)c32)c2cnn([C@@H]3O[C@H](COP(=O)(O)CP(=O)(O)O)[C@@H](O)[C@H]3O)c2n1 [Example 23, (((((2R,3S,4R,5R)-5-(4-(((R)-5,7-difluoro-2,3-dihydro-1H-inden-1-yl)amino)-6-methyl-1H-pyrazolo[3,4-b]pyridin-1-yl)-3,4-dihydroxytetrahydrofuran-2-yl)methoxy)(hydroxy)phosphoryl)methyl)phosphonic acid]	0.89	0.245
Cc1cc(N[C@@H]2CCc3cc(F)ccc32)c2cnn([C@@H]3O[C@H](COP(=O)(O)CP(=O)(O)O)[C@@H](O)[C@H]3O)c2n1 [Example 24, (((((2R,3S,4R,5R)-5-(4-(((R)-5-fluoro-2,3-dihydro-1H-inden-1-yl)amino)-6-methyl-1H-pyrazolo[3,4-b]pyridin-1-yl)-3,4-dihydroxytetrhydrofuran-2-yl)methoxy)(hydroxy)phosphoryl)methyl)phosphonic acid]	1.26	0.256
